From patent US20150038739A1, “METHOD FOR MANUFACTURING REFINED METHIONINE” (SUMITOMO CHEMICAL COMPANY, LIMITED, priority 2012, published 2015)

In the case of `CSCC[C@H](N)C(=O)O` [methionine], the “solubility of methionine in pure water (saturated solubility)” value (pure water, normal temperature and normal pressure) was “about 3.0 % by weight” and the “saturated solubility of methionine in alkaline recovered wash water” value (under 2.0% by weight of concentration of potassium) was “about 5.0 % by weight”.
